Literature values, collected in patent publication US20070203225A1, “METHOD OF INCREASING ENDOGENOUS ADIPONECTIN PRODUCTION AND LEPTIN PRODUCTION” (priority 2001, published 2007).

What was measured:
Settings in all cases: metformin 1.0 mM with 0.16 nM insulin, n=18; cited from earlier work
isolated rat adipocytes [1] = test system: isolated rat adipocytes
isolated rat adipocytes [2] = test system: isolated rat adipocytes; remark: listed apart in the source
isolated rat adipocytes [3] = test system: isolated rat adipocytes; remark: listed apart in the source

## CN(C)C(=N)N=C(N)N [metformin]
Isolated rat adipocytes [1]
  effect on glucose utilization (in words): increases
Isolated rat adipocytes [2]
  effect on proportion of glucose metabolized to lactate (in words): increases
Isolated rat adipocytes [3]
  effect on leptin secretion (in words): inhibits
